This note sets out measurements from paper PMC10376691, “Inhibition of Acetylcholinesterase and Amyloid-β Aggregation by Piceatannol and Analogs: Assessing In Vitro and In Vivo Impact on a Murine Model of Scopolamine-Induced Memory Impairment” (Antioxidants, 2023).

In this series the test system is SH-SY5Y cells. As to the kind of experiment: Cytotoxicity on SH-SY5Y cells (MTT). The class given is cell-based. The following applies: 1, 2, 5 and 10 μM, MTT (Figure S1). As to the method:
The human SH-SY5Y neuroblastoma cell lines (CRL-2266, Lot No. 58979771) were purchased from American Type Culture Collection (Manassas, VA, USA) and used as models to investigate PIC and its analogs for neuroprotective activities against Aβ-induced cell deaths and the stimulation of neurite outgrowths. The SH-SY5Y cells were grown in DMEM/F-12 medium supplemented with 10% FBS at 37 °C under a humidified atmosphere and 5% CO2 [41]. […]. The SH-SY5Y cells (10,000 cells/well) were seeded and cultured in a DMEM/F-12 medium containing 10% FBS for 24 h at 37 °C under a humidified atmosphere and 5% CO2. […] The medium was then removed, and 40 μg/mL Aβ peptide (25–35) (dissolved in PBS) or an equal aliquot of PBS was added to the medium for another 24 h culture. The MTT was used to evaluate cell viability, and the absorbance at 570 nm was determined. The DMSO used instead of the sample solution was blank (recognized as 100%), and each treatment was expressed as relative cell viability (%). […] To measure cell viability and quantify the neurite outgrowths of the treated SH-SY5Y in a 96-well plate, the neurite outgrowth staining kit (a two-color fluorescence assay kit) was used, following a previous report or the protocol in the manufacturer’s manual (publication number: MAN0007224), which included a cell membrane-stained fluorescent dye (orange-red fluorescence), a cell viability indicator (green fluorescence), and a reagent for background masking. The fluorescence ratios of Ex555nm/Em565nm and Ex495nm/Em515nm were determined for the neurite outgrowths and the cell viabilities, respectively. […]
The following supporting information can be downloaded at: https://www.mdpi.com/article/10.3390/antiox12071362/s1. […] The MTT was used to evaluate cell viability, and the absorbance at 570 nm was determined. The DMSO used instead of the sample solution was blank (recognized as 100%), and each treatment was expressed as relative cell viability (%). […]

Consider `Oc1cc(O)cc(C=Cc2ccc(O)c(O)c2)c1` [PIC, 3,5,3′,4′-tetrahydroxystilbene], for which the “cytotoxicity on SH-SY5Y cells” value is on record as “insignificant cytotoxicity”.
